Data taken from patent publication US10172355B2, “Safened herbicidal compositions including 4-amino-3-chloro-5-fluoro-6-(4-chloro-2-fluoro-3-methoxyphenyl)pyridine-2-carboxylic acid or a derivative thereof for use in rice” (Dow AgroSciences LLC, priority 2012, dated 2019).

Assays:
ORYSA=Orysa sativa, Rice = test: In-water applied herbicides and safeners in transplanted paddy rice, visual injury; type: in vivo; settings: for Mean Visual Injury (%) - 21 DAA ORYSA - ‘M202’ / Mean Visual Injury (%) - 21 DAA ORYSA - ‘Wells’: in-water applied
Procedure: (§1) Weed seeds or nutlets of the desired test plant species were planted in puddled soil (mud) prepared by mixing a shredded, non-sterilized mineral soil (50.5 percent silt, 25.5 percent clay, and 24 percent sand, with a pH of about 7.6 and an organic matter content of about 2.9 percent) and water at a 1:1 volumetric ratio. The prepared mud was dispensed in 365 mL aliquots into 16-ounce (oz.) non-perforated plastic pots with a surface area of 86.59 square centimeters (cm^2) leaving a headspace of 3 centimeters (cm) in each pot. Rice seeds were planted in Sun Gro MetroMix® 306 planting mixture, which typically has a pH of 6.0 to 6.8 and an organic matter content of about 30 percent, in plastic plug trays. Seedlings at the second or third leaf stage of growth were transplanted into 860 mL of mud contained in 32-oz. non-perforated plastic pots with a surface area of 86.59 cm^2 4 days prior to herbicide application. The paddy was created by filling the headspace of the pots with 2.5 to 3 cm of water. When required to ensure good germination and healthy plants, a fungicide treatment and/or other chemical or physical treatment was applied. The plants were grown for 4-22 days in a greenhouse with an approximate 14 h photoperiod which was maintained at about 29′C during the day and about 26° C. during the night. Nutrients were added as Osmocote® (17:6:10, N:P:K+minor nutrients) at 2 g per 16-oz. pot and 4 g per 32-oz. pot. Water was added on a regular basis to maintain the paddy flood, and supplemental lighting was provided with overhead metal halide 1000-Watt lamps as necessary. The plants were employed for testing when they reached the second or third true leaf stage.
(§2) Treatments consisted of the acid or esters of 4-amino-3-chloro-5-fluoro-6-(4-chloro-2-fluoro-3-methoxy-phenyl)pyridine-2-carboxylic acid (compound A) and various safeners alone and in combination. Forms of compound A were applied on an acid equivalent basis. Safener components were applied on an active ingredient or acid equivalent basis depending on the compound.
(§3) Treatment requirements for each compound or herbicidal component were calculated based upon the rates being tested, the concentration of active ingredient or acid equivalent in the formulation, an application volume of 2 mL per component per pot, and an application area of 86.59 cm^2 per pot.
(§4) For formulated compounds, a measured amount was placed in an individual 100 or 200 mL glass vial and was dissolved in a volume of 1.25% (v/v) Agri-Dex® crop oil concentrate to obtain application solutions.
(§5) For technical grade compounds, a weighed amount can be placed in an individual 100 to 200 mL glass vial and dissolved in a volume of acetone to obtain concentrated stock solutions. […] The concentrated stock solutions obtained can be diluted with an equivalent volume of an aqueous mixture containing 2.5% (v/v) crop oil concentrate so that the final application solutions contain 1.25% (v/v) crop oil concentrate.
(§6) Applications were made by injecting with a pipetter appropriate amounts of the application solutions, individually and sequentially, into the aqueous layer of the paddy. Control plants were treated in the same manner with the solvent blank. Applications were made so that all treated plant material received the same concentrations of acetone and crop oil concentrate.
(§7) The treated plants and control plants were placed in a greenhouse as described above and water was added as needed to maintain a paddy flood. After approximately 3 weeks the condition of the test plants as compared with that of the untreated plants was determined visually and scored on a scale of 0 to 100 percent where 0 corresponds to no injury or growth inhibition and 100 corresponds to complete kill.
Colby's equation was used to determine the herbicidal effects expected from the mixtures (Colby, S. R. 1967. Calculation of the synergistic and antagonistic response of herbicide combinations. Weeds 15:20-22.). […]

[1] = tested on: ECHCG=Echinochloa crus-galli; test: In-water applied herbicides in paddy, visual injury of weed; type: in vivo
Procedure: as §1, §2, §3, §4, §5, §6, §7
Some of the safener-herbicide combinations tested, application rates and ratios employed, plant species tested, and results are given in Tables 16-17. […]

Structure (SMILES)	Mean Visual Injury (%) - 21 DAA ORYSA - ‘M202’ (ORYSA=Orysa sativa, Rice; 8.75 g ae/ha)	Mean Visual Injury (%) - 21 DAA ORYSA - ‘Wells’ (ORYSA=Orysa sativa, Rice; 8.75 g ae/ha)	Mean Visual Injury (%) - 21 DAA ORYSA - ‘M202’ (ORYSA=Orysa sativa, Rice; 17.5 g ae/ha)	Mean Visual Injury (%) - 21 DAA ORYSA - ‘Wells’ (ORYSA=Orysa sativa, Rice; 17.5 g ae/ha)	Mean Visual Injury (%) - 21 DAA ORYSA - ‘M202’ (ORYSA=Orysa sativa, Rice; 35 g ae/ha)	Mean Visual Injury (%) - 21 DAA ORYSA - ‘Wells’ (ORYSA=Orysa sativa, Rice; 35 g ae/ha)	Mean Visual Injury (%) - 21 DAA ORYSA - ‘M202’ (ORYSA=Orysa sativa, Rice; 70 g ae/ha)	Mean Visual Injury (%) - 21 DAA ORYSA - ‘Wells’ (ORYSA=Orysa sativa, Rice; 70 g ae/ha)	Mean Visual Injury (%) - 21 DAA ORYSA - ‘M202’ (ORYSA=Orysa sativa, Rice; 140 g ae/ha)	Mean Visual Injury (%) - 21 DAA ORYSA - ‘Wells’ (ORYSA=Orysa sativa, Rice; 140 g ae/ha)	Mean Visual Injury (%) - 21 DAA ECHCG ([1]; 8.75 g ae/ha)	Mean Visual Injury (%) - 21 DAA ECHCG ([1]; 17.5 g ae/ha)	Mean Visual Injury (%) - 21 DAA ECHCG ([1]; 35 g ae/ha)	Mean Visual Injury (%) - 21 DAA ECHCG ([1]; 70 g ae/ha)	Mean Visual Injury (%) - 21 DAA ECHCG ([1]; 140 g ae/ha)	selectivity margin (ORYSA=Orysa sativa, Rice; in-water, relative rice and barnyardgrass responses, over that of the acid)
COc1c(Cl)ccc(-c2nc(C(=O)O)c(Cl)c(N)c2F)c1F [Acid, 4-amino-3-chloro-6-(4-chloro-2-fluoro-3-methoxyphenyl)-5-fluoropyridine-2-carboxylic acid]	0%	0%	0%	0%	0%	0%	3%	0%	25%	8%	0%	0%	10%	63%	95%	–
COc1c(Cl)ccc(-c2nc(C(=O)OCc3ccccc3)c(Cl)c(N)c2F)c1F [Benzyl]	0%	0%	0%	0%	0%	3%	0%	0%	22%	15%	23%	43%	81%	100%	100%	improved selectivity margin
